According to ChEMBL document CHEMBL6134805, “Dual-acting β-Aminothiochromones: Design, synthesis, and evaluation as antimicrobial and anti-angiogenic agents” (2025):
In brackets after ≈: the same amount, converted by molar mass. Activity calls are given as the source filed them. The calls are words filed in the database; no cut-off is given here.

Legend:
[1] = test system: Escherichia coli; experiment: Antimicrobial activity against Escherichia coli ATCC 10799 assessed as reduction in bacterial growth by serial dilution method; assay type: functional
[2] = test system: Pseudomonas aeruginosa; experiment: Antimicrobial activity against Pseudomonas aeruginosa MTCC 11778 assessed as reduction in bacterial growth by serial dilution method; assay type: functional
[3] = test system: Bacillus subtilis; experiment: Antimicrobial activity against Bacillus subtilis MTCC 13343 assessed as reduction in bacterial growth by serial dilution method; assay type: functional
[4] = test system: Staphylococcus aureus; experiment: Antimicrobial activity against Staphylococcus aureus ATCC 6538 assessed as reduction in bacterial growth by serial dilution method; assay type: functional
[5] = test system: Candida albicans; experiment: Antimicrobial activity against Candida albicans ATCC 24433 assessed as reduction in fungal growth by serial dilution method; assay type: functional
[6] = test system: Nakaseomyces glabratus; experiment: Antimicrobial activity against Candida glabrata MTCC 3019 assessed as reduction in fungal growth by serial dilution method; assay type: functional
[7] = test system: HepG2; experiment: Antiangiogenic activity against human HepG2 cells assessed as reduction in area of wound coverage at 12.5 ug/mL incubated for 72 hrs by scratch wound healing assay relative to control; assay type: functional; set-up: scale not given: the % may be the effect or the level left; details: dose 12.5 µg/ml
[8] = test system: HepG2; experiment: Antiangiogenic activity against human HepG2 cells assessed as reduction in area of wound coverage at 12.5 ug/mL incubated for 24 to 72 hrs by scratch wound healing assay; assay type: functional, cell-based; details: dose 12.5 µg/ml, time 24-72 hrs
[9] = test system: HepG2; experiment: Antiangiogenic activity against human HepG2 cells assessed as reduction in area of wound coverage at 6.25 ug/mL incubated for 24 to 72 hrs by scratch wound healing assay; assay type: functional, cell-based; details: dose 6.25 µg/ml, time 24-72 hrs
[10] = test system: HepG2; experiment: Antiangiogenic activity against human HepG2 cells assessed as reduction in area of wound coverage at 6.25 to 12.5 ug/mL by scratch wound healing assay; assay type: functional, cell-based; details: dose 6.25-12.5 µg/ml, time 24-72 hrs
[11] = test system: HepG2; experiment: Antiangiogenic activity against human HepG2 cells assessed as reduction in area of wound coverage incubated for 24 to 72 hrs by scratch wound healing assay; assay type: functional, cell-based; details: dose 6.25-12.5 µg/ml, time 24-72 hrs
[12] = test system: HepG2; experiment: Cytotoxicity against human HepG2 cells assessed as reduction in cell viability at 25 to 100 ug/mL by MTT assay; assay type: functional, cell-based; details: dose 25-100 µg/ml
[13] = test system: HepG2; experiment: Cytotoxicity against human HepG2 cells assessed as reduction in cell viability up to 100 ug/mL by MTT assay relative to control; assay type: functional; details: dose <= 100 µg/ml; up to 100 µg/mL
[14] = test system: Pseudomonas aeruginosa; experiment: Bactericidal activity against Pseudomonas aeruginosa MTCC 11778 by serial dilution method; assay type: functional
[15] = test system: Bacillus subtilis; experiment: Bactericidal activity against Bacillus subtilis MTCC 13343 by serial dilution method; assay type: functional
[16] = test system: Bacillus subtilis; experiment: Selectivity ratio of MBC for bactericidal activity against Bacillus subtilis MTCC 13343 to MIC for antimicrobial activity against Bacillus subtilis MTCC 13343; assay type: functional
[17] = test system: HepG2; experiment: Antiangiogenic activity against human HepG2 cells assessed as reduction in area of wound coverage at 12.5 ug/mL incubated for 24 hrs by scratch wound healing assay; assay type: functional; details: dose 12.5 µg/ml
[18] = test system: HepG2; experiment: Antiangiogenic activity against human HepG2 cells assessed as reduction in area of wound coverage at 12.5 ug/mL incubated for 48 hrs by scratch wound healing assay; assay type: functional; details: dose 12.5 µg/ml
[19] = test system: HepG2; experiment: Antiangiogenic activity against human HepG2 cells assessed as reduction in area of wound coverage at 12.5 ug/mL incubated for 72 hrs by scratch wound healing assay; assay type: functional; details: dose 12.5 µg/ml
[20] = test system: HepG2; experiment: Cytotoxicity against human HepG2 cells assessed as reduction in cell viability at 100 ug/mL by MTT assay relative to control; assay type: functional; details: dose 100 µg/ml
[21] = test system: Candida albicans; experiment: Fungicidal activity against Candida albicans ATCC 24433 by serial dilution method; assay type: functional
[22] = test system: Staphylococcus aureus; experiment: Bactericidal activity against Staphylococcus aureus ATCC 6538 by serial dilution method; assay type: functional
[23] = test system: Escherichia coli; experiment: Bactericidal activity against Escherichia coli ATCC 10799 by serial dilution method; assay type: functional
[24] = test system: Escherichia coli; experiment: Selectivity ratio of MBC for bactericidal activity against Escherichia coli ATCC 10799 to MIC for antimicrobial activity against Escherichia coli ATCC 10799; assay type: functional

Row | SMILES | MIC [1] | MIC [2] | MIC [3] | MIC [4] | MIC [5] | MIC [6] | Activity [7] | Activity [8] | Activity [9] | Activity [10] | Activity [11] | Activity [12] | Activity [13] | MBC [14] | MBC [15] | other results
1 | O=c1c(C(NCc2ccc(Cl)cc2)c2ccccc2)csc2ccccc12 (stereo not drawn) | 32 µg/mL (≈ 81.6 µM) | 32 µg/mL (≈ 81.6 µM) | 64 µg/mL (≈ 163 µM) | 64 µg/mL (≈ 163 µM) | 32 µg/mL (≈ 81.6 µM) | 32 µg/mL (≈ 81.6 µM) | 25.83% | Active | Active | Time-dependent-effect | Dose-dependent-effect | Active | <70% | – | – | –
2 | O=c1c(C(NCc2ccccc2)c2ccccc2)csc2ccc(Cl)cc12 (stereo not drawn) | 16 µg/mL (≈ 40.8 µM) | 8 µg/mL (≈ 20.4 µM) | 4 µg/mL (≈ 10.2 µM) | 16 µg/mL (≈ 40.8 µM) | 16 µg/mL (≈ 40.8 µM) | 8 µg/mL (≈ 20.4 µM) | 18.24% | – | Active | Time-dependent-effect | Dose-dependent-effect | Active | – | 64 µg/mL (≈ 163 µM) | 64 µg/mL (≈ 163 µM) | Selectivity ratio [16]: 16; Activity [17]: 768000 µm²; Activity [18]: 683000 µm²; Activity [19]: 692000 µm²; Activity [20]: 80%
3 | OC(Cn1cncn1)(Cn1cncn1)c1ccc(F)cc1F [FLUCONAZOLE] | – | – | – | – | 8 µg/mL (≈ 26.1 µM) | 16 µg/mL (≈ 52.2 µM) | – | – | – | – | – | – | – | – | – | MFC [21]: 64 µg/mL (≈ 209 µM)
4 | CC1(C)S[C@@H]2[C@H](NC(=O)[C@H](N)c3ccccc3)C(=O)N2[C@H]1C(=O)O [AMPICILLIN] | – | – | 8 µg/mL (≈ 22.9 µM) | 4 µg/mL (≈ 11.4 µM) | – | – | – | – | – | – | – | – | – | – | 32 µg/mL (≈ 91.6 µM) | MBC [22]: 64 µg/mL (≈ 183 µM)
5 | O=c1c(C(NCc2ccc(OC(F)(F)F)cc2)c2ccccc2)csc2ccccc12 (stereo not drawn) | 8 µg/mL (≈ 18.1 µM) | 16 µg/mL (≈ 36.2 µM) | 16 µg/mL (≈ 36.2 µM) | 8 µg/mL (≈ 18.1 µM) | 16 µg/mL (≈ 36.2 µM) | 16 µg/mL (≈ 36.2 µM) | 31.19% | Active | Active | Time-dependent-effect | Dose-dependent-effect | Active | >70% | 64 µg/mL (≈ 145 µM) | 64 µg/mL (≈ 145 µM) | MBC [23]: 32 µg/mL (≈ 72.5 µM); MBC [22]: 32 µg/mL (≈ 72.5 µM); Selectivity ratio [16]: 16; Selectivity ratio [24]: 4
6 | O=c1c(C(NCc2cccc(C(F)(F)F)c2)c2ccccc2)csc2ccccc12 (stereo not drawn) | 32 µg/mL (≈ 75.2 µM) | 32 µg/mL (≈ 75.2 µM) | 64 µg/mL (≈ 150 µM) | 64 µg/mL (≈ 150 µM) | 32 µg/mL (≈ 75.2 µM) | 64 µg/mL (≈ 150 µM) | 28.93% | Active | Active | Time-dependent-effect | Dose-dependent-effect | Active | <70% | – | – | –
7 | O=C(O)c1cn(C2CC2)c2cc(N3CCNCC3)c(F)cc2c1=O [CIPROFLOXACIN] | – | 4 µg/mL (≈ 12.1 µM) | – | – | – | – | – | – | – | – | – | – | – | 32 µg/mL (≈ 96.6 µM) | – | MBC [23]: 64 µg/mL (≈ 193 µM)
